Measured values published in BindingDB's records for doi:10.1007/pl00005133 (Eli Lilly, 1998).
Values joined by “and” are separate entries in the source; they are usually repeats but may differ in a detail not shown here. Equal values may be shown once.

Biological target: 5-hydroxytryptamine receptor 2B (Homo sapiens, UniProt P41595)
Sequence (P41595 whole entry): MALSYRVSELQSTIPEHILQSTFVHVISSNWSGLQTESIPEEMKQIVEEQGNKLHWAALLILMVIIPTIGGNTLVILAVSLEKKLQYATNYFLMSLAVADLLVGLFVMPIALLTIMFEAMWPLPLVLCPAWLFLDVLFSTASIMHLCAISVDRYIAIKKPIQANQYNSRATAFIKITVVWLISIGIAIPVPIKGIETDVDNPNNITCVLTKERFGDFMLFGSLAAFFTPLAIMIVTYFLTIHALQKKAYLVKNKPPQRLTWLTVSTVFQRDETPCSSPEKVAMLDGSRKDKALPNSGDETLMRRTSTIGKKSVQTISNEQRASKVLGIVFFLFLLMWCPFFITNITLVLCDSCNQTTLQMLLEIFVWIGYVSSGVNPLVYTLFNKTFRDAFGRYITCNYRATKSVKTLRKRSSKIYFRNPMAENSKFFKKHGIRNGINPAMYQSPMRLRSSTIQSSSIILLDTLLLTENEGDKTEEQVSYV

Cc1nc2sccn2c(=O)c1CCN1CCC(=C(c2ccc(F)cc2)c2ccc(F)cc2)CC1 was tested, and the Ki was 1.64 nM and 0.4 nM.
c1ccc2c(N3CCNCC3)cccc2c1 gave a Ki of 0.89 nM.
O=C1NCN(c2ccccc2)C12CCN(CC1COc3ccccc3O1)CC2 (stereo not drawn) [8-(2,3-Dihydro-benzo[1,4]dioxin-2-ylmethyl)-1-phenyl-1,3,8-triaza-spiro[4.5]decan-4-one] was tested, and the Ki was 475 nM and 173 nM.
With O=C(CCCN1CCC2(CC1)C(=O)NCN2c1ccccc1)c1ccc(F)cc1 [8-[4-(4-fluorophenyl)-4-oxidanylidene-butyl]-1-phenyl-1,3,8-triazaspiro[4.5]decan-4-one] the Ki was 592 nM and 317 nM.
With CC(O)C(C)OC(=O)C1CC2c3cccc4c3c(cn4C(C)C)CC2N(C)C1 (stereo not drawn) [CAS_60634-51-7] the Ki was 1.53 nM and 0.74 nM.
CCN(CC)C(=O)[C@@H]1C=C2c3cccc4[nH]c(Br)c(c34)C[C@H]2N(C)C1 [LSD,2-Bromo] was tested, and the Ki was 8.09 nM and 7.47 nM.
For CN1C[C@@H](NS(=O)(=O)N(C)C)C[C@@H]2c3cccc4c3c(cn4C)C[C@H]21 [MESULERGINE], the Ki was 3.3 nM and 1.92 nM.
With CN(C)CCC(c1ccc(Cl)cc1)c1ccccn1 (stereo not drawn) [clorfeniramina] the Ki was 6800 nM and 4170 nM.
